In data set [1] the test system is HTLV-IIIB strain of HIV-1 (in C8166-45 cells). Briefly: Syncytia (human T-cell culture) Assay. In kind it is cell-based. The conditions noted are these: Human immunodeficiency virus 1, T-cell; C8166-45 cells, HTLV-IIIB strain, 72 hours; read-out: Syncytia Assay IC50. Here is the method: Formation of syncytia is a feature of in vitro cultures of CD4+ T-cells infected with HIV-1. In this assay (1), T-cells are treated with a putative replication inhibiting compound and then infected with HIV-1. After incubation, the culture is checked for the formation of syncytia. The absence or reduction in the number of syncytia is used as a measure of the test compound's ability to inhibit HIV replication.
The target cells, designated C8166-45, are a fusion of umbilical blood lymphocytes and T-cells from leukemia-lymphoma patients and are established at an initial density of 5×10^4 per 90 μl in RPMI 1640 (+10% fetal bovine serum) culture medium in 96 well flat bottom plates. A selected amount of test compound, dissolved in DMSO, is included. 50 TCID50 's (the dose that results in induced effect in 50% of test cultures) of the HTLV-IIIB strain of HIV-1 (3) are inoculated into each culture. Control cultures receive compound or virus only.
The cultures are incubated for 72 hours (4), at 37° C. with 5% carbon dioxide, and then visually examined for the frequency and distribution of virus-induced giant cell syncytia. The percent inhibition by the test compound is determined by comparison with control values.

The subject of data set [2] is C8166-45 cell line. Briefly: MTT Assay (cytotoxicity). As to conditions: C8166-45 cells, five days. In kind it is cell-based, human.
Data set [3] addresses T1, RT (WT) (Human immunodeficiency virus type 1 group M subtype B, UniProt P04585). Briefly: Reverse Transcriptase (RT) Assay, wild type. As to conditions: read-out: RT (WT) Assay % inh. (1 μM). Further details: Heterodimeric RT was eluted using a descending gradient; made in house; host or cells: E. coli (clone pKRT2, obtained from Yale University). In kind it is biochemical, HIV-1. An excerpt:
(§1) REVERSE TRANSCRIPT (RT) ASSAYS
(§2) Among the enzymes for which Human Immunodeficiency Virus (HIV-1) encodes is a reverse transcriptase (1), so-named because it transcribes a DNA copy from an RNA template. This activity can be quantitatively measured in a cell-free enzyme assay, which has been previously described (2), and is based upon the observation that reverse transcriptase is able to use a synthetic template [poly r(C) primed with oligo d(G)] to transcribe a radio-labelled, acid-precipitable DNA strand utilizing ^3 H-dGTP as a substrate. The assay described below utilizes the wild type (WT) enzyme, which is the predominant form of the enzyme observed in patients infected with HIV-1.
The HIV-1 RT expression clone, pKRT2, was obtained from Yale University (3). An overnight culture, grown in 2×YT medium (37° C., 225 rpm) (4), supplemented with 100 μg/mL ampicillin for positive selection was used to inoculate the 2×YT medium. The culture is incubated (37° C., 225 rpm) until it reaches an OD600 of 0.6-0.9. At that time the repressor inhibitor IPTG (isopropyl β-D-thiogalactopyranoside) is added to 0.5 mM, and the mixture is incubated for 2 additional hours.
Purification of recombinant reverse transcriptase was performed using a combination of methods previously described (5). This procedure is summarized briefly as follows: Bacteria were pelleted E. Coli containing RT-1 wt or RT-1 (Y181 C) were suspended in 50 mM MES, pH 6.0 containing 10% glycerol, lysed in a french press, centrifuged, and the supernates discarded. Lysate pellets were extracted with buffer A (50 mM MES, pH 6.0, 100 mM KCl, 50 mM KPi, 10% glycerol, 0.02% hexyl β-glucoside), and re-centrifuged; nucleic acid in supernates was precipitated with 0.1% polyethylenimine. […] Bound RT was eluted with a gradient of 0 to 1.0M (NH4)2 SO4 in buffer B. Heparin-Sepharose fractions containing RT were concentrated (Amicon YM-30 membrane), combined with equal volumes of 2.0M (NH4)2 SO4 in buffer B and injected onto a 21.5×150 mm TSK Phenyl-5PW HIC HPLC column (Phenomenex). Heterodimeric RT was eluted using a descending gradient of 1.0M to 0M (NH4)2 SO4 in buffer B, concentrated, and stored at 4° C.
The 2.4× concentrated stock reaction mixture is aliquoted and stored at -20° C. […] This enzyme assay has been adapted to a 96 well microtiter plate system, and has been previously described (6). Tris buffer (50 mM, pH 7.8), vehicle (solvent diluted to match the compound dilution), or compounds in vehicle are dispensed into 96-well microtiter plates (10 μL/well; 3 wells/compound). The HIV-1 RT enzyme is thawed, diluted in 50 mM Tris pH 7.8 containing 0.05% Chaps to give 1.5 nM enzyme and 25 μL are dispensed per well. Ten μL of 0.5M EDTA are added to the first three wells of the microtiter plate. EDTA chelates the Mg^++ present and prevents reverse transcription. This group serves as background polymerization which is subtracted from all other groups. Twenty-five μl of the 2.4× reaction mixture are added to all wells and the assay is allowed to incubate at room temperature for 30 minutes. The assay is terminated by precipitating the DNA in each well with 60μL of sodium pyrophosphate (2% w/v) in 10% trichloracetic acid (TCA) (10% w/v). The microtiter plate is incubated for 15 minutes at 4° C. and the precipitate is harvested onto #30 glass fiber paper (Schleicher & Schuell) using a Tomtech 96-well harvester. The filters are then dried, placed into plastic bags with Betaplate scintillation cocktail (Pharmacia/LKB) and counted in the Betaplate counter (Pharmacia/LKB).
The calculation for percent inhibition is as follows: [formula]

The subject of data set [4] is AIDS. As to conditions: cited from earlier work.
Data set [5] addresses T1, RT (WT). The conditions noted are these: same in vitro tests used for the compounds of the invention; cited from earlier work.
For data set [6], the target named is T2, RT (Y181C) (Human immunodeficiency virus type 1 group M subtype B, UniProt P04585, Y768C).
T2 construct: Heterodimeric RT was eluted using a descending gradient; made in house; host or cells: E. coli
In kind it is biochemical. The conditions noted are these: Y181C mutant HIV-1 RT.
Text: as §1, §2
Purification of recombinant reverse transcriptase was performed using a combination of methods previously described (5). This procedure is summarized briefly as follows: Bacteria were pelleted E. Coli containing RT-1 wt or RT-1 (Y181 C) were suspended in 50 mM MES, pH 6.0 containing 10% glycerol, lysed in a french press, centrifuged, and the supernates discarded. […]
The 2.4× concentrated stock reaction mixture is aliquoted and stored at -20° C. […] The filters are then dried, placed into plastic bags with Betaplate scintillation cocktail (Pharmacia/LKB) and counted in the Betaplate counter (Pharmacia/LKB). […]

Bounds are passed on as bounds.

On to `CCN1c2ncc(CCc3ccncc3)cc2C(=O)N(C)c2ccc(Cl)nc21` [Example 3, 2-Chloro-5,11-dihydro-11ethyl-5methyl-8-[2-(pyrid-4-yl)ethyl]-6H-dipyrido-[3,2-b:2',3'-e][1,4]diazepin-6-one], for which, in data set [1], the IC50 stood at 10 nM. For the same molecule, in data set [2], the “MTT Assay CC30” value was 70 µM. For the same molecule, in data set [3], the inhibition at 1 µM turned out to be 95%. As for `Cc1ccnc2c1NC(=O)c1cccnc1N2C1CC1` [11-cyclopropyl-5,11-dihydro-4-methyl-6H-dipyrido[3,2-b;2',3', -e][1,4]diazepine-6-one], the “active in the treatment of AIDS in human tests” value in data set [4] is listed as “active in the treatment of AIDS in human tests”. Also, the “active in the same in vitro tests” value in data set [5] is listed as “active in the same in vitro tests”.

With `CCN1c2ncc(CCc3ccncc3)cc2C(=O)N(C)c2ccc(O)nc21` [Example 6, 5,11-Dihydro-11-ethyl-2-hydroxy-8-[2-(4-pyridil)ethyl]5-methyl-6H-dipyrido[3,2-b:2',3'-e][1,4]diazepin-6-one], in data set [2], the “MTT Assay CC30” value is greater than 256 µM. In data set [3], the inhibition at 1 µM was determined as 21%. With `CCN1c2ncc(CCc3ccncc3)cc2C(=O)N(C)c2ccc(N)nc21` [Example 5, 2-Amino-5,11-dihydro-11-ethyl-8-[2-(4-pyridil)ethyl]-5-methyl-6H -dipyrido[3,2-b:2',3'-e][1,4]diazepin-6-one], the inhibition at 1 µM in data set [3] was found to be 68%. In the case of “2-Chloro-5,11-dihydro-11-ethyl-8-[2-(3-methylsulfonamidophenyl)ethyl]-6H-dipyrido[3,2-b:2',3'-e][1,4]diazepin-6-one [Example 25]”, the “RT (Y181C) Assay % inh. (1 μM)” value in data set [6] was 70%.

Consider `CCN1c2ncc(CCc3ccncc3)cc2C(=O)N(C)c2cccnc21` [Example 2, 5,11-Dihydro-11-ethyl-5-methyl-8-[2-(pyrid-4-yl)ethyl]-6H-dipyrido[3,2-b:2',3'-e][1,4]diazepin-6-one], for which the IC50 in data set [1] was 20 nM. Also, the “MTT Assay CC30” value in data set [2] is greater than 60 µM. Moreover, in data set [3], the inhibition at 1 µM came to 95%.

As for “5,11-Dihydro-11-ethyl-5-methyl-8-phenylethynyl-6H-dipyrido[3,2-b:2',3'-e][1,4]diazepin-6-one [Example 48]”, the “RT (Y181C) Assay % inh. (1 μM)” value in data set [6] is on record as 17%.

As to `CCN1c2ncc(/C=C/c3ccncc3)cc2C(=O)N(C)c2cccnc21` [Example 1, 5,11-Dihydro-11-ethyl-5-methyl-8-[trans-2-(pyrid-4-yl)ethen-1-yl]-6H H-dipyridol[3,2-b:2',3'-e][1,4]diazepin-6-one], the inhibition at 1 µM in data set [3] turned out to be 32%.

Take `CCN1c2ncc(CCc3ccncc3)cc2C(=O)N(C)c2ccc(C#N)nc21` [Example 4, 2-Cyano-5,11-dihydro-11-ethyl-8-[2-(4-pyridyl)ethyl]-5-methyl-6H-dipyrido-[3,2-b:2',3'-e][1,4]diazepin-6-one]: the inhibition at 1 µM in data set [3] was 82%.

By IC50 is commonly meant the midpoint of a concentration-inhibition curve.

(Values after patent US5705499A, “8-arylalkyl- and 8-arylheteroalkyl-5,11-dihydro-6H-dipyrido[3,2-B:2',3'-e][1]diazepines and their use in the treatment of HIV-1 infection” (Boehringer Ingelheim Pharmaceuticals, Inc., priority 1996, dated 1998).)
